Experiment in all cases: biochemical
Design in all cases: DiscoverX kinase panel, active-site competition binding (KINOMEscan type), percent of control at one concentration
Common to all, as to conditions: competition binding, percent of control

One assay addresses T1, DMPK2 (Homo sapiens, UniProt Q6DT37).
T1 construct: gene CDC42BPG
From the text: (§1) To investigate the potential therapeutic benefit of inhibiting RIP1, we developed GNE684 or (S)-N-((S)-7-methoxy-1-methyl-2-oxo-2,3,4,5-tetrahydro-1H-pyrido[3,4-b]azepin-3-yl)-5-phenyl-6,7-dihydro-5H-pyrrolo[1,2-b][1,2,4]triazole-2-carboxamide with cross-species potency against RIP1, exquisite kinase selectivity, and favorable pharmacological properties (Fig. 1a–h, S1, Tables S1 and S2, SI file 1). […] (Fig. 1b, S1, and Table S1). […] GNE684 inhibited human RIP1 potently in vitro, and mouse and rat RIP1 with slightly less potency (Fig. 1d). Accordingly, it inhibited TNF-induced necroptosis in human HT-29, mouse L929, or rat H9c2 cells (Fig. 1e). The cellular potency of GNE684 was confirmed in a human whole blood assay using TBZ (TNF, IAP antagonist BV6, and pan-caspase inhibitor zVAD) or LZ (LPS plus zVAD) to trigger necroptosis and the release of IL-1α and IL-1β (Fig. 1f).

The next assay concerns the target CSNK1A1 (Homo sapiens, UniProt P48729).
Source text: as §1

For another assay, the target named is EGFR(S752-I759del) (Homo sapiens, UniProt P00533, DEL752-759).
Chain of EGFR(S752-I759del) (P00533 with tags, fused parts or gaps DEL752-759): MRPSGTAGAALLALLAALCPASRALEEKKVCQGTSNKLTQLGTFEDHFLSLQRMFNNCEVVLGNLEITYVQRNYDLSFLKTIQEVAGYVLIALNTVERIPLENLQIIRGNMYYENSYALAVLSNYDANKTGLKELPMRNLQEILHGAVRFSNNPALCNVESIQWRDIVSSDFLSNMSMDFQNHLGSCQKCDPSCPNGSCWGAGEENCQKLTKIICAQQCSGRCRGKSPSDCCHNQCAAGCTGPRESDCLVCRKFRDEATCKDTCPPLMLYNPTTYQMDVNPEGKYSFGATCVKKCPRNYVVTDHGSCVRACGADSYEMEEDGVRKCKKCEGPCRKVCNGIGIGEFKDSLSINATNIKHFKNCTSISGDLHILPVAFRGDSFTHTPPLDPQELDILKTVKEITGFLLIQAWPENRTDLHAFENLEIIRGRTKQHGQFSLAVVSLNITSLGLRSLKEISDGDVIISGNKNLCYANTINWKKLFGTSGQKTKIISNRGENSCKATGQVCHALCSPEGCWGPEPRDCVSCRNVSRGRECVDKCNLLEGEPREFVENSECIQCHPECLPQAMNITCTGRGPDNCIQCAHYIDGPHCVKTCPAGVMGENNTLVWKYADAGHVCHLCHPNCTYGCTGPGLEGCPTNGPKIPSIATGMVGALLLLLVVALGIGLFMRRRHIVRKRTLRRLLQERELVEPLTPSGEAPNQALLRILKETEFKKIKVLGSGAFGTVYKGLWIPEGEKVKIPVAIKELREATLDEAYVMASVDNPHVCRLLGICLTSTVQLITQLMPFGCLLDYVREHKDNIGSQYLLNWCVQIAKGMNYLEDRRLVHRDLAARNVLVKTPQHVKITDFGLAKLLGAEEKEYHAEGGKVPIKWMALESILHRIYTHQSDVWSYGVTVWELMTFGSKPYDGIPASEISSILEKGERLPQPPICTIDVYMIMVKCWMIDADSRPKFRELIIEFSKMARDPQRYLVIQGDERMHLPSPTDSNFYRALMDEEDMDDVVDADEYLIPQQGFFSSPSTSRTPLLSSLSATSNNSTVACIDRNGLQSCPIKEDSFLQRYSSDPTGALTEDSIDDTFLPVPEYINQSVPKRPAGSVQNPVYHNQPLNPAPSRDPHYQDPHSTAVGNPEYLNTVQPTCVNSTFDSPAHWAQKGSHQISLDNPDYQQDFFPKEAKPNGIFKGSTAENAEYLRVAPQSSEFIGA
Source text: as §1

The target of another assay is ANKK1 (Homo sapiens, UniProt Q8NFD2).
Source text: as §1

In another assay the target is T2, ADCK3 (Homo sapiens, UniProt Q8NI60).
T2 construct: gene COQ8A
T2 sequence (Q8NI60 whole entry): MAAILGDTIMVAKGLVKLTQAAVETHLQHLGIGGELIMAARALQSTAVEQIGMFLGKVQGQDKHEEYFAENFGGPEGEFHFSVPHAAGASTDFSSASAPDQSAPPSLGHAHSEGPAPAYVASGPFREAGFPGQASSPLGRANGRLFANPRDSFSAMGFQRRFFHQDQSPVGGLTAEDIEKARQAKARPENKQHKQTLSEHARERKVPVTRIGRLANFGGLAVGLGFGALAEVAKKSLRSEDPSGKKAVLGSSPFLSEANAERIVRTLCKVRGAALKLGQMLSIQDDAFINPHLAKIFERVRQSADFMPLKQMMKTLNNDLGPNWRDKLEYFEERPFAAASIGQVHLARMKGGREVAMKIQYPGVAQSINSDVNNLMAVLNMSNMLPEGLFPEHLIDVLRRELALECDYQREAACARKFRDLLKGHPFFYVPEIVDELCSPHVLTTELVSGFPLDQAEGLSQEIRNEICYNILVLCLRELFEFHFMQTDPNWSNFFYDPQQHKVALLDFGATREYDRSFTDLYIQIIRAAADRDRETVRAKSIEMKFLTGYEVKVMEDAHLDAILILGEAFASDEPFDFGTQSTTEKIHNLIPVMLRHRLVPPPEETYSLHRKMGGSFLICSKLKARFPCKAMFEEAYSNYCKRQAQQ
Source text: as §1

A further assay addresses T3, BRK (Homo sapiens, UniProt Q13882).
T3 construct: gene PTK6
Source text: as §1

The target of another assay is CSF1R-autoinhibited (Homo sapiens, UniProt P07333).
Source text: as §1

Another assay concerns the target T4, p38-alpha (Homo sapiens, UniProt Q16539).
T4 construct: gene MAPK14
Source text: as §1

A further assay addresses CDKL5 (Homo sapiens, UniProt O76039).
Source text: as §1

A further assay addresses T5, LOK (Homo sapiens, UniProt O94804).
T5 construct: gene STK10
Source text: as §1

A further assay concerns the target T6, MST1 (Homo sapiens, UniProt Q13043).
T6 construct: gene STK4
Source text: as §1

A further assay concerns the target SBK1 (Homo sapiens, UniProt Q52WX2).
Source text: as §1

The target of another assay is LRRK2 (Homo sapiens, UniProt Q5S007).
Source text: as §1

The target in another assay is NEK2 (Homo sapiens, UniProt P51955).
Source text: as §1

Another assay deals with STK39 (Homo sapiens, UniProt Q9UEW8).
Source text: as §1

Another assay has as its target HUNK (Homo sapiens, UniProt P57058).
Source text: as §1

The target in a further assay is T7, PCTK3 (Homo sapiens, UniProt Q07002).
T7 construct: gene CDK18
T7 sequence (Q07002 whole entry): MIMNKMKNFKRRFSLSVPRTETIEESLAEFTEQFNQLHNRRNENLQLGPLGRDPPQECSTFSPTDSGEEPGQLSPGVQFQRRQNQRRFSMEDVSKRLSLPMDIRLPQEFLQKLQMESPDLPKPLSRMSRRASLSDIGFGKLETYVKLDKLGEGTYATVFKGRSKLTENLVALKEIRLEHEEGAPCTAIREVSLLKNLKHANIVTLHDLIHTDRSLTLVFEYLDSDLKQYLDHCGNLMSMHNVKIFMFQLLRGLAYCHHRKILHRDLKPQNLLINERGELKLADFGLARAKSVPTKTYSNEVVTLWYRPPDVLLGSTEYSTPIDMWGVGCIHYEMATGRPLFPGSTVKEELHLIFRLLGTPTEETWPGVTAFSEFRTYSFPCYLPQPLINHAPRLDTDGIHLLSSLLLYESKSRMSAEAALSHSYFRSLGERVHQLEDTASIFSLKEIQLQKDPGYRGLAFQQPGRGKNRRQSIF
Source text: as §1

The target in another assay is MET (Homo sapiens, UniProt P08581).
Source text: as §1

In another assay the target is PIK3CA(E542K) (Homo sapiens, UniProt P42336, E542K).
Source text: as §1

Another assay deals with T8, MINK (Homo sapiens, UniProt Q8N4C8).
T8 construct: gene MINK1
T8 sequence (Q8N4C8 whole entry): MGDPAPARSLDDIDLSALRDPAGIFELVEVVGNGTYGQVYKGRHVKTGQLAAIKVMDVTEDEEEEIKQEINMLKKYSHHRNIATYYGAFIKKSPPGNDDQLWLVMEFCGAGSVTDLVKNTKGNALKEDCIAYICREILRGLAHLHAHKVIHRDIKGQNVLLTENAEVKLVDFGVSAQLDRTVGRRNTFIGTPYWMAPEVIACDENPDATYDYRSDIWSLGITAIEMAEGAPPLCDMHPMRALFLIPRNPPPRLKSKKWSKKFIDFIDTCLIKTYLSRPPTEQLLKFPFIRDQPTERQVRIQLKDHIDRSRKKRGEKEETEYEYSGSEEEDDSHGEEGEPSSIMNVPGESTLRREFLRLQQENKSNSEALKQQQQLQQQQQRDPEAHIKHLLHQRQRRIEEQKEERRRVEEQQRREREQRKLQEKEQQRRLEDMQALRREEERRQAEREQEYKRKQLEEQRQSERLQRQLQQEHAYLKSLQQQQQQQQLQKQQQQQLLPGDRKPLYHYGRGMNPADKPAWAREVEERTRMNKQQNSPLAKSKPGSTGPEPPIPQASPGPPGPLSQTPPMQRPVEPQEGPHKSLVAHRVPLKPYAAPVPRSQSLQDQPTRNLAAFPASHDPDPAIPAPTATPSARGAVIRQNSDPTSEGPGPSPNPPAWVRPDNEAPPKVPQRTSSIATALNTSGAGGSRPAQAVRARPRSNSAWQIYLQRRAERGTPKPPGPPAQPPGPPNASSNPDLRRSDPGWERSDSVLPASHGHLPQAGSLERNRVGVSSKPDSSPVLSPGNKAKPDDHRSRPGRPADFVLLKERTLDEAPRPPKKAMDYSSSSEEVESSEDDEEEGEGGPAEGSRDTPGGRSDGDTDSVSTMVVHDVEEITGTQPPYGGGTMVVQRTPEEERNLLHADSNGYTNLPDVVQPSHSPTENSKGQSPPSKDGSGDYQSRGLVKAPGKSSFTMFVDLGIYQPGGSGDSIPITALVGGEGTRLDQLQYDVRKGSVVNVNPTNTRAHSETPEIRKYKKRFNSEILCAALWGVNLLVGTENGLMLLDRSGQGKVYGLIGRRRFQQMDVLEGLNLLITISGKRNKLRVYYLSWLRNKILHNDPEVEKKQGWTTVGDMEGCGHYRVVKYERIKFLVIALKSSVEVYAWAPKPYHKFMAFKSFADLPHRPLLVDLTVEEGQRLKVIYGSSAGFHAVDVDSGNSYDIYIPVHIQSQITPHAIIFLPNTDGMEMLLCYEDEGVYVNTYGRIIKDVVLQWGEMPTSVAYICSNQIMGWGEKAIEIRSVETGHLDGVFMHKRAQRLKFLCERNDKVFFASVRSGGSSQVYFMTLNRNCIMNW
Source text: as §1

Assay [1] addresses T9, TYK2(JH1domain-catalytic) (Homo sapiens, UniProt P29597).
T9 construct: JH1domain-catalytic
Source text: as §1

T9 sequence (P29597 whole entry): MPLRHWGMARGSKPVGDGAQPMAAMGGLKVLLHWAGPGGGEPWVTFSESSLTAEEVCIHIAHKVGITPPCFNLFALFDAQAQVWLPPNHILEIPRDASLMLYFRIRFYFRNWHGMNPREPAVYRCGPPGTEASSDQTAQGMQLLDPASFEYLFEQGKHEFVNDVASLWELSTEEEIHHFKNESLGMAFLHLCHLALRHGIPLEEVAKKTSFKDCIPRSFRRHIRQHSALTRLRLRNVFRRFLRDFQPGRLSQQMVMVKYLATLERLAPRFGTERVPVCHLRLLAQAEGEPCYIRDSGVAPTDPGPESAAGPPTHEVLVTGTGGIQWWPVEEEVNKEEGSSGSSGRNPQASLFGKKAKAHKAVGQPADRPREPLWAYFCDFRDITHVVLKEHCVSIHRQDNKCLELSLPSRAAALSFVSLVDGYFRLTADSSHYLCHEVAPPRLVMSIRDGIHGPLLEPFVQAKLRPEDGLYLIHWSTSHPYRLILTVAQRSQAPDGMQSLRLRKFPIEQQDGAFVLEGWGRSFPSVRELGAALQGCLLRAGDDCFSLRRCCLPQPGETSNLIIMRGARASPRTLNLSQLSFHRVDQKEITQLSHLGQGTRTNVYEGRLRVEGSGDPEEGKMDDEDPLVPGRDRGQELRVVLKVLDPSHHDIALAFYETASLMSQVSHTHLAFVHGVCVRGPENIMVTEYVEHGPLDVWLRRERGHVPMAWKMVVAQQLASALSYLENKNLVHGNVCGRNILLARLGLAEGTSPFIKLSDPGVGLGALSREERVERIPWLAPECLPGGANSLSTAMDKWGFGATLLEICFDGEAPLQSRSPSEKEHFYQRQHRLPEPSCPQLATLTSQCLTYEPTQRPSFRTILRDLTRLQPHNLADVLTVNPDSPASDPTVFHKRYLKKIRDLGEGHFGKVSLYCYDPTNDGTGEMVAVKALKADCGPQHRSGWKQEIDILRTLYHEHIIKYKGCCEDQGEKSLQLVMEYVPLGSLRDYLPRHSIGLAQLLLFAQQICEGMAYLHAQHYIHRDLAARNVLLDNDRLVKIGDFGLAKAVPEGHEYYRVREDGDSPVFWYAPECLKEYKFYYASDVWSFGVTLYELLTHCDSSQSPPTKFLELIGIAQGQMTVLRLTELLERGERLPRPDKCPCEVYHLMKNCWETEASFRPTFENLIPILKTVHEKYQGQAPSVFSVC

As for `COc1cc2c(cn1)N(C)C(=O)[C@@H](NC(=O)c1nc3n(n1)[C@H](c1ccccc1)CC3)CC2` [GNE684, (S)-N-((S)-7-methoxy-1-methyl-2-oxo-2,3,4,5-tetrahydro-1H-pyrido[3,4-b]azepin-3-yl)-5-phenyl-6,7-dihydro-5H-pyrrolo[1,2-b][1,2,4]triazole-2-carboxamide], the remaining binding at 10 µM was found to be 100% at DMPK2; 87% on CSNK1A1; 97% at EGFR(S752-I759del); 98% on ANKK1; 98% on ADCK3; 100% on BRK. The remaining binding at 10 µM is 94% on CSF1R-autoinhibited; 95% on p38-alpha; 79% on CDKL5; 82% on LOK; 85% at MST1; 100% on SBK1. The remaining binding at 10 µM at LRRK2 amounted to 91%; on NEK2 it was 92%; on STK39, 97%; on HUNK, 94%; at PCTK3 it was 94%; on MET, 73%. Moreover, the values for the remaining binding at 10 µM (on PIK3CA(E542K); at MINK; in [1]) were 41%, 100% and 100%, respectively.

The record behind these values is article PMC7206119, “RIP1 inhibition blocks inflammatory diseases but not tumor growth or metastases” (Cell Death and Differentiation, 2019).
